This note sets out measurements from ChEMBL document CHEMBL3046217, “Synthesis, antimicrobial, antioxidant, anti-inflammatory, and analgesic activities of some new 3-(2-thienyl)pyrazole-based heterocycles” (Med Chem Res, 2012).

Converted amounts (≈) assume the structure as drawn. The source made the active and inactive calls. The rule behind the calls is not given here.

In assay [1] the test system is Mus musculus. The assay can be described thus: Analgesic activity in Mus musculus Swiss albino (mouse) assessed as inhibition of acetic acid-induced writhing at 20 mg/kg, po administered 30 min before acetic acid challenge measured for 20 min after acetic acid injection […]. In kind it is functional, organism-based. Also on record: dose 20 mg/kg.
In assay [2] the test system is Rattus norvegicus. The assay is described as follows: Anti-inflammatory activity in Rattus norvegicus Sprague-Dawley (rat) assessed as inhibition of carrageenan-induced paw edema at 20 mg/kg, po administered 1 hr before carrageenan challenge and measured hourly for 4-hr post drug administration by mercury plethysmometer. The assay is classed as functional, organism-based. Further details: dose 20 mg/kg.

The test system of assay [3] is Radical scavenging activity. The assay can be described thus: Antioxidant activity assessed as as DPPH radical scavenging activity by spectrophotometry. The assay is classed as functional. (Loss of DPPH colour is used to gauge radical scavenging.)
In assay [4] the test system is Aspergillus niger. The assay is described as follows: Antimicrobial activity against Aspergillus niger after 24 hr by agar diffusion method. In kind it is functional, organism-based.
Assay [5] has as its system Saccharomyces cerevisiae. The assay can be described thus: Antimicrobial activity against Saccharomyces cerevisiae after 24 hr by agar diffusion method. The assay is classed as functional. To be noted: for MIC: Saccharomyces cerevisiae, 24 h.
Assay [6] concerns Candida albicans. The assay is described as follows: Antimicrobial activity against Candida albicans NRRLY-477 after 24 hr by agar diffusion method. In kind it is functional. On the technique in general: Agar diffusion results depend on both activity and mobility in agar.
Assay [7] deals with Mycolicibacterium phlei. The assay is described as follows: Antimicrobial activity against Mycobacterium phlei after 24 hr by agar diffusion method. In kind it is functional.
In assay [8] the test system is Enterococcus faecalis. The assay is described as follows: Antimicrobial activity against Enterococcus faecalis ATCC 29212 after 24 hr by agar diffusion method. In kind it is functional. Conditions: for MIC: Enterococcus faecalis, ATCC 29212, 24 h.
In assay [9] the test system is Pseudomonas aeruginosa. The assay is described as follows: Antimicrobial activity against Pseudomonas aeruginosa ATCC 29953 after 24 hr by agar diffusion method. In kind it is functional. To be noted: for MIC: Pseudomonas aeruginosa, ATCC 29953, 24 h.
Assay [10] has as its system Klebsiella pneumoniae. The assay is described as follows: Antimicrobial activity against Klebsiella pneumoniae ATCC 13883 after 24 hr by agar diffusion method. The assay is classed as functional.
Assay [11] concerns Enterobacter cloacae. The assay can be described thus: Antimicrobial activity against Enterobacter cloacae ATCC 3047 after 24 hr by agar diffusion method. The assay is classed as functional. To be noted: for MIC: Enterobacter cloacae, ATCC 3047, 24 h.
For assay [12], the system named is Salmonella typhi. The assay is described as follows: Antimicrobial activity against Salmonella enterica subsp. enterica serovar Typhi after 24 hr by agar diffusion method. In kind it is functional.
Assay [13] relates to Bacillus spizizenii. The assay is described as follows: Antimicrobial activity against Bacillus subtilis subsp. spizizenii ATCC 6633 after 24 hr by agar diffusion method. To be noted: for MIC: Bacillus spizizenii, ATCC 6633, 24 h. In kind it is functional.
In assay [14] the test system is Staphylococcus aureus. The assay can be described thus: Antimicrobial activity against Staphylococcus aureus ATCC 29213 after 24 hr by agar diffusion method. The assay is classed as functional. To be noted: for MIC: Staphylococcus aureus, ATCC 29213, 24 h.
Assay [15] concerns Escherichia coli. Conditions: ATCC 25922.
Description: Antimicrobial activity against Escherichia coli ATCC 25922 after 24 hr by agar diffusion method

The term IC50 denotes the concentration at which inhibition is half-maximal. As a reminder, the MIC is the lowest concentration that inhibits growth of the organism. As for `C(=N/Nc1nc2nc3ccccc3nc2s1)/c1cn(-c2ccccc2)nc1-c1cccs1`, the inhibition entry in assay [1] and in [2] was “Active” each time. The IC50 in [3] was 500 µg/mL (≈ 1100 µM). Moreover, the outcome in assay [4] was inactive. Besides, the “inhibition zone (IZ)” value is 28 mm in assay [5]; 15 mm in [7]; 21 mm in [8]; 28 mm in assay [9]; 18 mm in assay [11]; 26 mm in [13]. Further, the “inhibition zone (IZ)” value in assay [14] is 21 mm. For the same molecule, the MIC in assay [5] stood at 41.6 µg/mL (≈ 91.7 µM); in [8], 167 µg/mL (≈ 367 µM); in assay [9] it was 41.6 µg/mL (≈ 91.7 µM); in assay [11] it was 333 µg/mL (≈ 735 µM); in assay [13], 41.6 µg/mL (≈ 91.7 µM); in assay [14], 333 µg/mL (≈ 735 µM). Also, the “inhibition zone (IZ)” value in assay [6], in assay [10] and in [12] was “inactive” throughout. The IZ result in [15] was “inactive”.

Consider `O=C(/C=C/c1cn(-c2ccccc2)nc1-c1cccs1)c1ccc(Cl)cc1`, for which the inhibition entry in assay [1] and in assay [2] was “Active” each time. Further, the IC50 in assay [3] was 1000 µg/mL (≈ 2560 µM). Further, the result in assay [4] was inactive. In addition, the “inhibition zone (IZ)” value in assay [5] is recorded as 29 mm; in [6] it was 18 mm; in assay [7], 15 mm; in [8], 21 mm; in assay [9], 19 mm; in assay [10] it was 18 mm. The “inhibition zone (IZ)” value stood at 24 mm in [11], 24 mm in assay [12], 21 mm in assay [13] and 21 mm in assay [14]. For the same molecule, the MIC in assay [5] is 20.8 µg/mL (≈ 53.2 µM); in [6] (Candida albicans, NRRLY-477, 24 h) it was 167 µg/mL (≈ 426 µM); in [8], 83.3 µg/mL (≈ 213 µM); in assay [9], 333 µg/mL (≈ 853 µM); in assay [10] (Klebsiella pneumoniae, ATCC 13883, 24 h), 167 µg/mL (≈ 426 µM); in assay [11], 41.6 µg/mL (≈ 106 µM). Also, the MIC in [12] (Salmonella enterica, 24 h) came to 83.3 µg/mL (≈ 213 µM); in assay [13], 167 µg/mL (≈ 426 µM); in [14], 167 µg/mL (≈ 426 µM). Besides, the IZ result in [15] is “inactive”.

Regarding `O=c1oc2ccccc2cc1-c1csc(N/N=C\c2cn(-c3ccccc3)nc2-c2cccs2)n1`, the inhibition result in assay [1] and in assay [2] was “Active” each time. The IC50 in [3] was determined as 25 µg/mL (≈ 50.4 µM). Besides, the outcome in assay [4] was inactive. The “inhibition zone (IZ)” value in assay [5], in assay [6], in assay [7], in assay [9] and in assay [12] was “inactive” throughout. Moreover, the “inhibition zone (IZ)” value in [8] was found to be 22 mm; in [10], 14 mm; in assay [11] it was 14 mm; in assay [13], 21 mm; in assay [14] it was 11 mm. For the same molecule, the figures for the MIC in [8] and in assay [13] were 83.3 µg/mL (≈ 168 µM) and 167 µg/mL (≈ 336 µM), respectively. Moreover, the IZ entry in assay [15] was “inactive”.
